Patent US20170334899A1, “AMINO-SUBSTITUTED ISOTHIAZOLES” (Bayer Pharma Aktiengesellschaft, priority 2014, published 2017)

Target: T1, catalytic domain of human Bub1 (amino acids 704-1085) (Homo sapiens, UniProt O43683)
T1 construct: catalytic domain of human Bub1 (amino acids 704-1085); His6 (N); made in house; host or cells: insect cells (Hi5)
Assay: Bub1 kinase assay (TR-FRET)
Type: biochemical
Details: 10 μM ATP, avg, read-out: Bub1 avg (IC50 [mol/l])
Procedure, shortened: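 Readout is the 665/620 nm TR-FRET ratio from anti-phosphoserine antibody, Eu-labelled anti-mouse IgG and streptavidin-XL665, scaled between no-enzyme and uninhibited controls. Reaction: 1 μM biotinylated peptide, 10 μM ATP, 60 min, 22 °C, after 15 min compound preincubation with His6-Bub1 (704-1085, insect-expressed, ~200 ng/ml).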

T1 sequence (O43683 704-1085): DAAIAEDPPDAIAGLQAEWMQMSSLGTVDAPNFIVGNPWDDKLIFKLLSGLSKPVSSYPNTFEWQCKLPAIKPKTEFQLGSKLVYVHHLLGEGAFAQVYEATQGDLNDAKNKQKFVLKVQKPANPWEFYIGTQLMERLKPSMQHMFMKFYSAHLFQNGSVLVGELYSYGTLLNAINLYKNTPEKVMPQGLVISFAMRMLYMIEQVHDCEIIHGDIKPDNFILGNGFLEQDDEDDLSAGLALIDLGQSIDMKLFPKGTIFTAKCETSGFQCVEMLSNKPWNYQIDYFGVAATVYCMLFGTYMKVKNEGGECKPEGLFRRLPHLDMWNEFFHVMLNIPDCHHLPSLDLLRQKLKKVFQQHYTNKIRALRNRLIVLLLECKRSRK

Cc1nsc(Nc2cnc3ccccc3n2)c1C(=O)Nc1ccc(OC2CCN(CC(F)(F)F)CC2)nc1 [Example 21, 3-Methyl-5-(quinoxalin-2-ylamino)-N-(6-{[1-(2,2,2-trifluoroethyl)piperidin-4-yl]oxy}-pyridin-3-yl)-1,2-thiazole-4-carboxamide]
IC50: ≥ 20 µM

CC(=O)N1CCC(Oc2ccc(NC(=O)c3c(C)nsc3Nc3cnc4ccccc4n3)cn2)CC1 [Example 22, N-{6-[(1-acetylpiperidin-4-yl)oxy]pyridin-3-yl}-3-methyl-5-(quinoxalin-2-ylamino)-1,2-thiazole-4-carboxamide]
IC50: ≥ 20 µM

Cc1nsc(Nc2cc(C#N)ccn2)c1C(=O)Nc1ccc(OC2CCN(C(=O)OC(C)(C)C)CC2)nc1 [Example 23, tert-Butyl 4-({5-[({5-[(4-cyanopyridin-2-yl)amino]-3-methyl-1,2-thiazol-4-yl}-carbonyl)amino]pyridin-2-yl}oxy)piperidine-1-carboxylate]
IC50: ≥ 20 µM

Cc1nsc(Nc2cc(C#N)ccn2)c1C(=O)Nc1ccc(OC2CCNCC2)nc1 [Example 24, 5-[(4-Cyanopyridin-2-yl)amino]-3-methyl-N-[6-(piperidin-4-yloxy)pyridin-3-yl]-1,2-thiazole-4-carboxamide]
IC50: ≥ 20 µM

Cc1nsc(Nc2cc(C#N)ccn2)c1C(=O)Nc1ccc(OC2CCN(CC(F)(F)F)CC2)nc1 [Example 25, 5-[(4-Cyanopyridin-2-yl)amino]-3-methyl-N-(6-{[1-(2,2,2-trifluoroethyl)piperidin-4-yl]oxy}pyridin-3-yl)-1,2-thiazole-4-carboxamide]
IC50: ≥ 20 µM

CCN1CCC(Oc2ccc(NC(=O)c3c(C)nsc3Nc3cc(C#N)ccn3)cn2)CC1 [Example 26, 5-[(4-Cyanopyridin-2-yl)amino]-N-{6-[(1-ethylpiperidin-4-yl)oxy]pyridin-3-yl}-3-methyl-1,2-thiazole-4-carboxamide]
IC50: ≥ 20 µM

Cc1nsc(Nc2ccc(C#N)cn2)c1C(=O)Nc1ccc(OC2CCN(C(=O)OC(C)(C)C)CC2)nc1 [Example 27, tert-Butyl 4-({5-[({5-[(5-cyanopyridin-2-yl)amino]-3-methyl-1,2-thiazol-4-yl}-carbonyl)amino]pyridin-2-yl}oxy)piperidine-1-carboxylate]
IC50: ≥ 20 µM

Cc1nsc(Nc2cnc3ccccc3n2)c1C(=O)Nc1ccc(N2CCN(C(=O)OC(C)(C)C)CC2)nc1 [Example 248, tert-butyl 4-[5-({[3-methyl-5-(quinoxalin-2-ylamino)-1,2-thiazol-4-yl]carbonyl}amino)pyridin-2-yl]piperazine-1-carboxylate]
IC50: > 20 µM

Cc1nsc(Nc2cnc3ccccc3n2)c1C(=O)Nc1cccc(C(=O)NC2CC2)c1 [Example 249, N-[3-(cyclopropylcarbamoyl)phenyl]-3-methyl-5-(quinoxalin-2-ylamino)-1,2-thiazole-4-carboxamide]
IC50: 1.2 µM

Cc1nsc(Nc2ccc(C#N)cn2)c1C(=O)Nc1cccc(C(=O)NC2CC2)c1 [Example 250, 5-[(5-cyanopyridin-2-yl)amino]-N-[3-(cyclopropylcarbamoyl)phenyl]-3-methyl-1,2-thiazole-4-carboxamide]
IC50: > 20 µM

CCNC(=O)c1cccc(NC(=O)c2c(C)nsc2Nc2cnc3ccccc3n2)c1 [Example 251, N-[3-(ethylcarbamoyl)phenyl]-3-methyl-5-(quinoxalin-2-ylamino)-1,2-thiazole-4-carboxamide]
IC50: 0.6 µM

CCNC(=O)c1cccc(NC(=O)c2c(C)nsc2Nc2ccc(C#N)cn2)c1 [Example 252, 5-[(5-cyanopyridin-2-yl)amino]-N-[3-(ethylcarbamoyl)phenyl]-3-methyl-1,2-thiazole-4-carboxamide]
IC50: > 20 µM

Cc1nsc(Nc2cnc3ccccc3n2)c1C(=O)Nc1cccc(C(=O)NC(C)C)c1 [Example 253, N-[3-(isopropylcarbamoyl)phenyl]-3-methyl-5-(quinoxalin-2-ylamino)-1,2-thiazole-4-carboxamide]
IC50: 0.32 µM

Cc1nsc(Nc2cc(C#N)ccn2)c1C(=O)Nc1cccc(C(=O)NC(C)C)c1 [Example 254, 5-[(4-cyanopyridin-2-yl)amino]-N-[3-(isopropylcarbamoyl)phenyl]-3-methyl-1,2-thiazole-4-carboxamide]
IC50: 3.2 µM

Cc1nsc(Nc2ccc(C#N)cn2)c1C(=O)Nc1cccc(C(=O)NC(C)C)c1 [Example 255, 5-[(5-cyanopyridin-2-yl)amino]-N-[3-(isopropylcarbamoyl)phenyl]-3-methyl-1,2-thiazole-4-carboxamide]
IC50: > 20 µM

COC(=O)CCCc1ccc(NC(=O)c2c(C)nsc2Nc2cc(C#N)ccn2)cc1 [Example 256, methyl 4-{4-[({5-[(4-cyanopyridin-2-yl)amino]-3-methyl-1,2-thiazol-4-yl}carbonyl)amino]phenyl}butanoate]
IC50: > 20 µM

COC(=O)CCc1cccc(NC(=O)c2c(C)nsc2Nc2cnc3ccccc3n2)c1 [Example 257, methyl 3-[3-({[3-methyl-5-(quinoxalin-2-ylamino)-1,2-thiazol-4-yl]carbonyl}amino)phenyl]propanoate]
IC50: > 20 µM

Cc1nsc(Nc2cnc3ccccc3n2)c1C(=O)Nc1cccc(NS(=O)(=O)C2CCN(C(=O)OC(C)(C)C)CC2)c1 [Example 258, tert-butyl 4-{[3-({[3-methyl-5-(quinoxalin-2-ylamino)-1,2-thiazol-4-yl]carbonyl}amino)phenyl]sulfamoyl} piperidine-1-carboxylate]
IC50: > 20 µM

Cc1nsc(Nc2cnc(C(F)(F)F)cn2)c1C(=O)Nc1ccc(C(=O)NC2CCN(CC(F)F)CC2)cc1 [Example 259, N-(4-{[1-(2,2-difluoroethyl)piperidin-4-yl]carbamoyl}phenyl)-3-methyl-5-{[5-(trifluoromethyl)pyrazin-2-yl]amino}-1,2-thiazole-4-carboxamide]
IC50: > 20 µM

Cc1nsc(Nc2cnc(C(F)(F)F)cn2)c1C(=O)Nc1ccc(C(=O)N2CCN(CC(F)(F)F)CC2)cc1 [Example 260, 3-methyl-N-(4-{[4-(2,2,2-trifluoroethyl)piperazin-1-yl]carbonyl}phenyl)-5-{[5-(trifluoromethyl)pyrazin-2-yl]amino}-1,2-thiazole-4-carboxamide]
IC50: > 20 µM

CCN1CCN(C(=O)c2ccc(NC(=O)c3c(C)nsc3Nc3cnc(C(F)(F)F)cn3)cc2)CC1 [Example 261, N-{4-[(4-ethylpiperazin-1-yl)carbonyl]phenyl}-3-methyl-5-{[5-(trifluoromethyl)pyrazin-2-yl]amino}-1,2-thiazole-4-carboxamide]
IC50: > 20 µM

Cc1nsc(Nc2cnc(C(F)(F)F)cn2)c1C(=O)Nc1ccc(C(=O)N2CCN(C)CC2)cc1 [Example 262, 3-methyl-N-{4-[(4-methylpiperazin-1 yl)carbonyl]phenyl}-5-{[5-(trifluoromethyl)pyrazin-2-yl]amino}-1,2-thiazole-4-carboxamide]
IC50: > 20 µM

Cc1nsc(Nc2cc(C#N)ccn2)c1C(=O)Nc1ccc(OC2CCN(CC(F)F)CC2)nc1 [Example 263, 5-[(4-cyanopyridin-2-yl)amino]-N-(6-{[1-(2,2-difluoroethyl)piperidin-4-yl]oxy}pyridin-3-yl)-3-methyl-1,2-thiazole-4-carboxamide]
IC50: > 20 µM

Cc1nsc(Nc2cnc(C(F)(F)F)cn2)c1C(=O)Nc1ccc(F)c(OC2CCN(CC(F)(F)F)CC2)c1 [Example 264, N-(4-fluoro-3-{[1-(2,2,2-trifluoroethyl)piperidin-4-yl]oxy}phenyl)-3-methyl-5-{[5-(trifluoromethyl)pyrazin-2-yl]amino}-1,2-thiazole-4-carboxamide]
IC50: > 20 µM

Cc1nsc(Nc2cnc(C(F)(F)F)cn2)c1C(=O)Nc1ccc(F)c(OC2CCN(CC(F)F)CC2)c1 [Example 265, N-(3-{[1-(2,2-difluoroethyl)piperidin-4-yl]oxy}-4-fluorophenyl)-3-methyl-5-{[5-(trifluoromethyl)pyrazin-2-yl]amino}-1,2-thiazole-4-carboxamide]
IC50: > 20 µM

Cc1nsc(Nc2cnc(C(F)(F)F)cn2)c1C(=O)Nc1ccc(F)c(OC2CCN(CCF)CC2)c1 [Example 266, N-(4-fluoro-3-{[1-(2-fluoroethyl)piperidin-4-yl]oxy}phenyl)-3-methyl-5-{[5-(trifluoromethyl)pyrazin-2-yl]amino}-1,2-thiazole-4-carboxamide]
IC50: > 20 µM

Cc1nsc(Nc2cncc(C(F)(F)F)n2)c1C(=O)Nc1ccc(F)c(OC2CCN(CC(F)(F)F)CC2)c1 [Example 267, N-(4-fluoro-3-{[1-(2,2,2-trifluoroethyl)piperidin-4-yl]oxy}phenyl)-3-methyl-5-{[6-(trifluoromethyl)pyrazin-2-yl]amino}-1,2-thiazole-4-carboxamide]
IC50: > 20 µM

Cc1nsc(Nc2cncc(C(F)(F)F)n2)c1C(=O)Nc1ccc(F)c(OC2CCN(CC(F)F)CC2)c1 [Example 268, N-(3-{[1-(2,2-difluoroethyl)piperidin-4-yl]oxy}-4-fluorophenyl)-3-methyl-5-{[6-(trifluoromethyl)pyrazin-2-yl]amino}-1,2-thiazole-4-carboxamide]
IC50: 19 µM

Cc1nsc(Nc2cncc(C(F)(F)F)n2)c1C(=O)Nc1ccc(F)c(OC2CCN(CCF)CC2)c1 [Example 269, N-(4-fluoro-3-{[1-(2-fluoroethyl)piperidin-4-yl]oxy}phenyl)-3-methyl-5-{[6-(trifluoromethyl)pyrazin-2-yl]amino}-1,2-thiazole-4-carboxamide]
IC50: > 20 µM

Cc1nsc(Nc2cnc(C(F)(F)F)cn2)c1C(=O)Nc1ccc(C(=O)NC2CN(CC(F)(F)F)C2)cc1 [Example 270, 3-methyl-N-(4-{[1-(2,2,2-trifluoroethyl)azetidin-3-yl]carbamoyl}phenyl)-5-{[5-(trifluoromethyl)pyrazin-2-yl]amino}-1,2-thiazole-4-carboxamide]
IC50: > 20 µM
